One assay deals with acidic FGF (aFGF) (Homo sapiens, UniProt P05230). Briefly: biochemical. The settings on record: for stabilization of aFGF against heat-induced aggregation: 0.5X and 10X ligand, FIGS. 6-8; for Approx. Molar Ratio (ligand to aFGF at 50% inhibition of aggregation): Table 1. From the text:
Stabilization of aFGF can be determined by several independent methods including turbidity measurements, spectroscopic techniques, maintenance of protein mass, mitogenic activity and copper catalyzed oxidation. Since acidic fibroblast growth factor is unstable at physiological temperatures (undergoing large structural changes, including aggregation, which results in a loss of mitogenic and wound healing activity), human aFGF stability can be monitored by evaluating the turbidity of the pharmaceutical composition by following the kinetics of temperature induced aggregation of unfolded protein.
The kinetics of protein aggregation (stabilization) are monitored by the degree of light scattering at about OD350 nm using a Perkin Elmer Lambda 6 UV-visible spectrophotometer equipped with a six-cuvette holder. Temperature is controlled by circulating a water/ethylene glycol solution through the cell holder. About 0.9 ml of a PBS solution (6 mM sodium phosphate, 120 mM NaCl, pH 7.2) was placed into a cuvette and incubated at the appropriate temperature within the spectrophotometer. Once equilibrated, 100 μl of a 1 mg/ml aFGF solution containing the appropriate amount of ligand (stabilizer) is added to the cuvette and mixed manually by inversion. The change in optical density at 350 nm over time is continuously monitored. A dead time of 30s was present due to the mixing of the six samples in each experiment.
To examine the interactions between aFGF and heparin, a spectrophotometric turbidity assay was developed. This technique monitors the structural stability of aFGF by following the kinetics of temperature induced aggregation of unfolded protein by measurement of the degree of light scattering (turbidity) at 350 nm. The kinetics of protein aggregation were monitored by the degree of light scattering at 350 nm using a Perkin Elmer Lambda 6 UV-visible spectrophotometer equipped with a six-cuvette holder. Temperature was controlled by circulating a water/ethylene glycol solution through the cell holder. A PBS solution, 0.9 ml, (6 mM phosphate, 120 mM NaCl pH 7.2) was placed into a cuvette and incubated at the appropriate temperature within the spectrophotometer. Once equilibrated, 100 μl of a 1 mg/ml aFGF solution containing the appropriate amount of ligand was added to the cuvette and mixed manually by inversion. The change in optical density at 350 nm over time was continuously monitored. A dead time of 30s was present due to the mixing of the six samples in each experiment.
Samples contained 100 μg/ml aFGF in a PBS buffer at pH 7.2 with the indicated ratio of heparin to aFGF (wt:wt).
Samples contained 100 μg/ml protein in a PBS buffer, pH 7.2 with (a) no heparin, (b) 1.5 μg/ml, (c) 3 μg/ml, (d) 5 μg/ml, (e) 10 μg/ml and (f) 50 μg/ml heparin. Only representative data points are shown for clarity. […] Using the initial linear portion of the slope of turbidity vs. time plots as a measure of the rate of aggregation, the effect of polyanion concentration can be quantitatively characterized. The Y-axis represents the maximum rate of turbidity formation (ΔOD350 nm/min) normalized to sample (a) containing no heparin. The curve is drawn through data points for clarity only. The IC50 is the concentration of ligand at which the rate of aggregation is 50% of the control sample.

Another assay concerns the target T1, aFGF (Homo sapiens, UniProt P05230).
T1 construct: The recombinant derived, 140 amino add form is the preferred form of aFGF; N-terminal methionine (MetHaFGF); made in house; host or cells: microbial cells (preferred embodiment)
In words: Thermal denaturation (Tm) of aFGF by circular dichroism. It is filed as biochemical. Conditions: for Tm of aFGF, circular dichroism: 3X ligand by weight. How it is done:
Circular Dichroism (CD) spectra are measured with an AVIV 62 DS spectropolarimeter. Samples of aFGF at about 100 μg/ml in a PBS buffer (6 mM sodium phosphate, 120 mM NaCl, pH 7.2) containing various ligands are placed into 1 mm pathlength cells and the cell temperature is controlled by circulating a water/ethylene glycol mixture through the cell holder. Thermal denaturation is carded out under computer control by increasing the temperature of the water bath in 2° C. increments, followed by a two-minute equilibration period at each temperature to allow the sample to reach thermal equilibrium. Reproducibility of the midpoint of these temperature melting curves (Tm) is ±2° C.
The maximum Tm values induced by 12 different ligands as determined by circular dichroism measurements at 228 nm are summarized in the first column of Table II. All of these ligands stabilize aFGF by 15°-25° C. in a manner similar to that originally observed with heparin. […] Furthermore, sulfate unions are found near analogous residues in the crystal structure of basic FGF, Eriksson et al., Proc. Natl. Acad. Sd. USA 88:3441-3445 (1991); Zhang et al., Proc. Natl. Acad. Sci. USA 88:3446-3450 (1991). Consequently, it seemed important to examine the ability of these ligands to stabilize aFGF during thermal denaturation as monitored by both fluorescence and circular dichroism. The Tm value of aFGF increased from 27° C. to 43° C. (fluorescence)and 45° C. to 51° C. (CD) when a 100 molar excess (3X by weight) of (IrCl6)^-3 was present. Similarly, sulfate union (120 mM) produced a species that was even more dramatically stabilized, melting at 57° C. (CD).
^(a) Thermal melting temperatures were measured by circular dichroism
Samples contained […] aFGF in PBS buffer pH 7.2 with excess ligand
(1-3× by weight except for 120 mM sodium sulfate and 10 mM
A general note: Circular dichroism is widely used to follow secondary structure.

[1] abbreviates: 40° C., 100 μg/ml aFGF, PBS pH 7.2.
[2] abbreviates: 40° C., 100 μg/ml aFGF, PBS pH 7.2, read-out: IC50: concentration of ligand at which the rate of heat-induced aggregation of aFGF is 50% of the sample without ligand (converted).

Where two headings read alike, the source gives them in different places.

acidic FGF (aFGF), sequence (P05230 16-155 limits assumed): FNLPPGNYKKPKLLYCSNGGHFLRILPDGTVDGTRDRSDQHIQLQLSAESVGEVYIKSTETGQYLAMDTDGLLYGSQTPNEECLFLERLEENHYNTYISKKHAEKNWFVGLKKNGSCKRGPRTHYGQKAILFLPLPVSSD
T1 sequence (P05230 16-155 limits assumed): as above

With Chondroitin Sulfate B, the “IC50: concentration of ligand at which the rate of heat-induced aggregation of aFGF is 50% of the sample without ligand” value against acidic FGF (aFGF) (setting [1]) is 50 µg/mL. For the same compound, the “effect on rate and extent of aggregation of aFGF” value (“effect on rate and extent” below) was “only a slight effect” on acidic FGF (aFGF) (40° C., 0.5X ligand by weight); “significantly slows down the rate and extent of aggregation” at acidic FGF (aFGF) (40° C., 10X ligand by weight). On to sulodexide [reference compound], for which the “stabilization of aFGF against heat-induced aggregation” value at acidic FGF (aFGF) (40° C.) was “dramatically stabilize aFGF from heat-induced aggregation”. As to `OC[C@H]1O[C@@H]2O[C@H]3[C@H](O)[C@@H](O)[C@@H](O[C@H]4[C@H](O)[C@@H](O)[C@@H](O[C@H]5[C@H](O)[C@@H](O)[C@@H](O[C@H]6[C@H](O)[C@@H](O)[C@@H](O[C@H]7[C@H](O)[C@@H](O)[C@@H](O[C@H]8[C@H](O)[C@@H](O)[C@@H](O[C@H]1[C@H](O)[C@H]2O)O[C@@H]8CO)O[C@@H]7CO)O[C@@H]6CO)O[C@@H]5CO)O[C@@H]4CO)O[C@@H]3CO` [β-cyclodextrin (sulfur content zero), β-cyclodextrin], the “Tm of aFGF, circular dichroism” value on aFGF is 46 °C.

As for poly-glutamic acid, at acidic FGF (aFGF) (40° C.), the “stabilization of aFGF against heat-induced aggregation” value was “significantly enhance the thermal stability of aFGF”. Regarding propyl-hydroxy-β- cyclodextrin, on aFGF (3X by weight), the “stabilization of aFGF, circular dichroism” value is recorded as “did not stabilize addic FGF”. Moreover, the “Tm of aFGF, circular dichroism” value at aFGF came to 47 °C. For the compound `Nc1ncnc2c1ncn2[C@@H]1O[C@H](COP(=O)(O)OP(=O)(O)OP(=O)(O)OP(=O)(O)OP(=O)(O)OC[C@H]2O[C@@H](n3cnc4c(N)ncnc43)[C@H](O)[C@@H]2O)[C@@H](O)[C@H]1O` [Ap5A], the IC50 at acidic FGF (aFGF) (setting [2]) is 10 µM. Moreover, the “Approx. Molar Ratio (ligand to aFGF at 50% inhibition of aggregation)” value on acidic FGF (aFGF) (40° C.) was 1.6. As for `Nc1ncnc2c1ncn2[C@@H]1O[C@H](COP(=O)(O)OP(=O)(O)OP(=O)(O)OP(=O)(O)O)[C@@H](O)[C@H]1O` [AT4P], the IC50 on acidic FGF (aFGF) (setting [2]) was 10 µM. Moreover, the “Approx. Molar Ratio (ligand to aFGF at 50% inhibition of aggregation)” value at acidic FGF (aFGF) (40° C.) came to 1.6. Consider `Nc1ncnc2c1ncn2[C@@H]1O[C@H](COP(=O)(O)OP(=O)(O)O)[C@@H](O)[C@H]1O` [ADP], for which, on acidic FGF (aFGF) (setting [2]), the IC50 is 200 µM. In addition, the “Approx. Molar Ratio (ligand to aFGF at 50% inhibition of aggregation)” value at acidic FGF (aFGF) (40° C.) turned out to be 33. Compound `Nc1ncnc2c1ncn2[C@@H]1O[C@H](COP(=O)(O)OP(=O)(O)OP(=O)(O)O)[C@@H](O)[C@H]1O` [ATP] had an IC50 against acidic FGF (aFGF) of 30 µM. For the same compound, at acidic FGF (aFGF) (40° C.), the “stabilization of aFGF against heat-induced aggregation” value is “significantly enhance the thermal stability of aFGF” and the “Approx. Molar Ratio (ligand to aFGF at 50% inhibition of aggregation)” value is recorded as 5. In the case of `O=C(O)[C@H](O)[C@@H](O)[C@H](O[C@@H]1O[C@H](CO)[C@H](O)[C@H](O)[C@H]1O)[C@H](O)CO` [Lactobionic acid], at acidic FGF (aFGF) (40° C.), the “number of ligand molecules per aFGF (molar ratio) required for stabilization” value is “about 80” and the “Approx. Molar Ratio (ligand to aFGF at 50% inhibition of aggregation)” value was determined as 80. Besides, the IC50 at acidic FGF (aFGF) (setting [2]) was 502 µM. Regarding polyvinyl sulfate, the “stabilization of aFGF against heat-induced aggregation” value at acidic FGF (aFGF) (40° C.) is listed as “much less effective”.

In the case of Fucoidin, the “IC50: concentration of ligand at which the rate of heat-induced aggregation of aFGF is 50% of the sample without ligand” value at acidic FGF (aFGF) (setting [1]) stood at 6 µg/mL. In addition, the “stabilization of aFGF against heat-induced aggregation” value at acidic FGF (aFGF) (40° C.) is recorded as “dramatically stabilize aFGF from heat-induced aggregation”. With `Nc1ncnc2nc[nH]c12.O=S(=O)(O)O` [adenine sulfate], the “stabilization of aFGF against heat-induced aggregation” value on acidic FGF (aFGF) (40° C.) is on record as “actually alestabilize the growth factor”. Take `Nc1ncnc2c1ncn2[C@@H]1O[C@H](COP(=O)(O)OP(=O)(O)OP(=O)(O)OP(=O)(O)OC[C@H]2O[C@@H](n3cnc4c(N)ncnc43)[C@H](O)[C@@H]2O)[C@@H](O)[C@H]1O` [Ap4A]: the IC50 on acidic FGF (aFGF) (setting [2]) is 30 µM. The “Approx. Molar Ratio (ligand to aFGF at 50% inhibition of aggregation)” value on acidic FGF (aFGF) (40° C.) was 5. Consider keratan sulfate, for which, on acidic FGF (aFGF) (40° C.), the “stabilization of aFGF against heat-induced aggregation” value was “much less effective”. As for chondroitin sulfate C, the “effect on rate and extent” value is “only a slight effect” at acidic FGF (aFGF) (40° C., 0.5X ligand by weight); “significantly slows down the rate and extent of aggregation” on acidic FGF (aFGF) (40° C., 10X ligand by weight).

Consider polyaspartic acid [poly-Asp], for which, at acidic FGF (aFGF) (40° C.), the “stabilization of aFGF against heat-induced aggregation” value is “significantly enhance the thermal stability of aFGF”. Take chondroitin sulfate A: the “effect on rate and extent” value on acidic FGF (aFGF) (40° C., 0.5X ligand by weight) is “only a slight effect”; at acidic FGF (aFGF) (40° C., 10X ligand by weight), “significantly slows down the rate and extent of aggregation”. With `N.N.O=S(=O)(O)O` [Ammonium sulfate, ammonium sulfate], on acidic FGF (aFGF) (40° C.), the “number of ligand molecules per aFGF (molar ratio) required for stabilization” value was “about 80” and the “Approx. Molar Ratio (ligand to aFGF at 50% inhibition of aggregation)” value was found to be 80. For the same compound, the “IC50: concentration of ligand at which the rate of heat-induced aggregation of aFGF is 50% of the sample without ligand” value on acidic FGF (aFGF) (setting [1]) was found to be 70 µg/mL. With `Nc1ncnc2c1ncn2[C@@H]1O[C@H](COP(=O)(O)OP(=O)(O)OP(=O)(O)OP(=O)(O)OP(=O)(O)OP(=O)(O)OC[C@H]2O[C@@H](n3cnc4c(N)ncnc43)[C@H](O)[C@@H]2O)[C@@H](O)[C@H]1O` [Ap6A], the IC50 at acidic FGF (aFGF) (setting [2]) is 3 µM. Besides, the “Approx. Molar Ratio (ligand to aFGF at 50% inhibition of aggregation)” value at acidic FGF (aFGF) (40° C.) came out at 0.5. For `Nc1ncnc2c1ncn2[C@@H]1O[C@H](COP(=O)(O)OP(=O)(O)OP(=O)(O)OC[C@H]2O[C@@H](n3cnc4c(N)ncnc43)[C@H](O)[C@@H]2O)[C@@H](O)[C@H]1O` [Ap3A], the IC50 on acidic FGF (aFGF) (setting [2]) was 250 µM. On acidic FGF (aFGF) (40° C.), the “Approx. Molar Ratio (ligand to aFGF at 50% inhibition of aggregation)” value stood at 42.

(Values after patent US5348941A, “Stabilizers for fibroblast growth factors” (Merck & Co., Inc., priority 1992, dated 1994).)
